The source of these data is US20120077854A1, “COMPOSITIONS AND METHODS FOR MODULATING RETINOL BINDING TO RETINOL BINDING PROTEIN 4 (RBP4)” (priority 2009, published 2012).

The IC50 is the point on the concentration scale where inhibition reaches its midpoint. Low values mean greater potency in that assay, high ones weaker potency in that assay.

Bounds are passed on as bounds.

This assay concerns the target RBP4 (Homo sapiens, UniProt P02753). The experiment in a line: HTRF competition assay: displacement of Cy5-labeled retinol from RBP4. The class given is binding. The settings on record: 10 nM biotin-labeled RBP4, streptavidin-Europium cryptate 1 nM, room temperature 30 min. Here is the method:
To determine the binding affinity of test compounds for RBP4, a homogeneous time resolved fluorescence (HTRF) assay was developed. The assay was a competition experiment measuring the interaction of RBP4 with the known RBP4 ligand retinol. Cy5-labeled retinol was incubated with 10 nM biotin-labeled RBP4 protein and streptavidin-Europium cryptate (1 nM). Test or control compounds were added to the reaction mixture and incubated at room temperature for 30 min. The HTRF signal was determined by monitoring the emission at 665 nm and […]. The ratio between the 665 nM signal and the […] signal was used to determine the binding of Cy5-retinol to RBP4. The ability of test or control compounds to displace Cy5-retinol from RBP4 was used to determine their potency for RBP4. […]
Background: Time-resolved FRET reads energy transfer from a long-lived donor to a nearby acceptor.

On to `COC(=O)Cc1csc(-c2cc(C(F)(F)F)cc(C(F)(F)F)c2)n1` [Example 1, Methyl 2-(2-(3,5-bis(trifluoromethyl)phenyl)thiazol-4-yl)acetate], for which the concentration for half-maximal inhibition (IC50) came out at 2430 nM. `COc1ccc(-c2nc(CC(=O)O)cs2)cc1C(F)(F)F` [Example 26, 2-(2-(4-Methoxy-3-(trifluoromethyl)phenyl)thiazol-4-yl)acetic acid] gave an IC50 of 193 nM. The compound `O=C(O)c1nc(-c2cc(C(F)(F)F)cc(C(F)(F)F)c2)cs1` [Example 33, 4-(3,5-Bis-trifluoromethyl-phenyl)-thiazole-2-carboxylic acid] had a concentration for half-maximal inhibition (IC50) of 1060 nM. Then `Cc1sc(CC(=O)O)nc1-c1cc(C(F)(F)F)cc(C(F)(F)F)c1` [Example 9, 2-(4-(3,5-Bis(trifluoromethyl)phenyl)-5-methylthiazol-2-yl)acetic acid], with 232 nM. With `O=C(O)Cc1csc(-c2cc(F)cc(C(F)(F)F)c2)n1` [Example 20, 2-(2-(3-Fluoro-5-(trifluoromethyl)phenyl)thiazol-4-yl)acetic acid] the figure was 168 nM; with `COC(=O)Cc1nc(-c2cc(C(F)(F)F)cc(C(F)(F)F)c2)co1` [Example 5, Methyl 2-(4-(3,5-bis(trifluoromethyl)phenyl)oxazol-2-yl)acetate], 924 nM. Then `O=C(O)Cc1coc(-c2cc(C(F)(F)F)ccc2Cl)n1` [Example 36, 2-(2-(2-Chloro-5-(trifluoromethyl)phenyl)oxazol-4-yl)acetic acid], with 8820 nM; and `Cc1ccc(-c2nc(CC(=O)O)cs2)cc1C(F)(F)F` [Example 17, 2-(2-(4-Methyl-3-(trifluoromethyl)phenyl)thiazol-4-yl)acetic acid], with 86 nM. Turning to `O=C(O)Cc1csc(-c2ccc(Cl)c(C(F)(F)F)c2)n1` [Example 10, 2-(2-(4-Chloro-3-(trifluoromethyl)phenyl)thiazol-4-yl)acetic acid], the IC50 is 63 nM.

Take `O=C(O)Cc1cc(-c2ccc(Cl)c(C(F)(F)F)c2)no1` [Example 25, 2-(3-(4-Chloro-3-(trifluoromethyl)phenyl)isoxazol-5-yl)acetic acid]: the IC50 turned out to be 285 nM.

For the compound `O=C(O)Cc1nc(-c2cc(C(F)(F)F)cc(C(F)(F)F)c2)co1` [Example 7, 2-(4-(3,5-Bis(trifluoromethyl)phenyl)oxazol-2-yl)acetic acid], the IC50 amounted to 31 nM. With `O=C(O)Cc1coc(-c2cccc(C(F)(F)F)c2Cl)n1` [Example 22, 2-(2-(2-Chloro-3-(trifluoromethyl)phenyl)oxazol-4-yl)acetic acid] the figure was 1660 nM. Then `FC(F)(F)c1cc(-c2nc(Cc3nn[nH]n3)cs2)ccc1Cl` [Example 35, 5-[2-(4-Chloro-3-trifluoromethyl-phenyl)-thiazol-4-ylmethyl]-2H-tetrazole], with 196 nM; and `O=C(O)Cc1coc(-c2cc(Br)cc(C(F)(F)F)c2)n1` [Example 37, 2-(2-(3-Bromo-5-(trifluoromethyl)phenyl)oxazol-4-yl)acetic acid], with more than 10000 nM; and `O=C(O)Cc1coc(-c2cc(F)c(F)c(C(F)(F)F)c2)n1` [Example 29, 2-(2-(3,4-Difluoro-5-(trifluoromethyl)phenyl)oxazol-4-yl)acetic acid], with 263 nM. Then `COC(=O)Cc1nc(-c2cc(C(F)(F)F)cc(C(F)(F)F)c2)no1` [Example 3, Methyl 2-(3-(3,5-bis(trifluoromethyl)phenyl)-1,2,4-oxadiazol-5-yl)acetate], with 3440 nM; and `O=C(O)Cc1csc(-c2cc(C(F)(F)F)cc(C(F)(F)F)c2)n1` [Example 2, 2-(2-(3,5-Bis(trifluoromethyl)phenyl)thiazol-4-yl)acetic acid], with 85 nM.

In the case of `O=C(O)Cc1coc(-c2cc(F)cc(C(F)(F)F)c2)n1` [Example 19, 2-(2-(3-Fluoro-5-(trifluoromethyl)phenyl)oxazol-4-yl)acetic acid], the IC50 turned out to be 658 nM. With `O=C(O)Cc1csc(-c2ccc(F)c(C(F)(F)F)c2)n1` [Example 18, 2-(2-(4-Fluoro-3-(trifluoromethyl)phenyl)thiazol-4-yl)acetic acid] the figure was 440 nM.

As to `O=C(O)Cc1csc(-c2cc(C(F)(F)F)ccc2Cl)n1` [Example 21, 2-(2-(2-Chloro-5-(trifluoromethyl)phenyl)thiazol-4-yl)acetic acid], the IC50 was determined as 1050 nM. `O=C(O)Cc1csc(-c2cc(Cl)cc(C(F)(F)F)c2)n1` [Example 8, 2-(2-(3-Chloro-5-(trifluoromethyl)phenyl)thiazol-4-yl)acetic acid] came in with an IC50 of 88 nM. Then `COc1cc(-c2nc(CC(=O)O)cs2)cc(C(F)(F)F)c1` [Example 14, 2-(2-(3-Methoxy-5-(trifluoromethyl)phenyl)thiazol-4-yl)acetic acid], with 88 nM; and `O=C(O)Cc1coc(-c2ccc(F)c(C(F)(F)F)c2)n1` [Example 24, 2-(2-(4-Fluoro-3-(trifluoromethyl)phenyl)oxazol-4-yl)acetic acid], with 721 nM. Then `COc1ccc(-c2nc(CC(=O)O)co2)cc1C(F)(F)F` [Example 23, 2-(2-(4-Methoxy-3-(trifluoromethyl)phenyl)oxazol-4-yl)acetic acid], with 175 nM; and `O=C(O)Cc1csc(-c2cc(F)c(F)c(C(F)(F)F)c2)n1` [Example 30, 2-(2-(3,4-Difluoro-5-(trifluoromethyl)phenyl)thiazol-4-yl)acetic acid], with 86 nM; and `COc1cc(-c2nc(CC(=O)O)co2)cc(C(F)(F)F)c1` [Example 15, 2-(2-(3-Methoxy-5-(trifluoromethyl)phenyl)oxazol-4-yl)acetic acid], with 248 nM.

In the case of `O=C(O)Cc1nc(-c2cc(F)cc(C(F)(F)F)c2)cs1` [Example 13, 2-(4-(3-Fluoro-5-(trifluoromethyl)phenyl)thiazol-2-yl)acetic acid], the 50% inhibitory concentration (IC50) turned out to be 91 nM. Then `O=C(O)Cc1coc(-c2cc(C(F)(F)F)cc(C(F)(F)F)c2)n1` [Example 6, 2-(2-(3,5-Bis(trifluoromethyl)phenyl)oxazol-4-yl) acetic acid], with 93 nM; and `O=C(O)Cc1csc(-c2cc(C(F)F)cc(C(F)(F)F)c2)n1` [Example 32, 2-(2-(3-(Difluoromethyl)-5-(trifluoromethyl)phenyl)thiazol-4-yl)acetic acid], with 134 nM. Then `COC(=O)Cc1coc(-c2cc(C(F)(F)F)cc(C(F)(F)F)c2)n1` [Example 4, Methyl 2-(2-(3,5-bis(trifluoromethyl)phenyl)oxazol-4-yl)acetate], with 2850 nM; and `O=C(O)C(O)c1csc(-c2cc(C(F)(F)F)cc(C(F)(F)F)c2)n1` (stereo not drawn) [Example 16, 2-(2-(3,5-Bis(trifluoromethyl)phenyl)thiazol-4-yl)-2-hydroxyacetic acid], with 141 nM; and `O=C(O)Cc1csc(-c2cc(Br)cc(C(F)(F)F)c2)n1` [Example 28, 2-(2-(3-Bromo-5-(trifluoromethyl)phenyl)thiazol-4-yl)acetic acid], with 50 nM. Compound `Cc1oc(CC(=O)O)nc1-c1cc(C(F)(F)F)cc(C(F)(F)F)c1` [Example 11, 2-(4-(3,5-Bis(trifluoromethyl)phenyl)-5-methyloxazol-2-yl)acetic acid] came in with an IC50 of 1590 nM. Then `FC(F)(F)c1cc(-c2nc(Cc3nn[nH]n3)cs2)cc(C(F)(F)F)c1` [Example 34, 5-[2-(3,5-Bis-trifluoromethyl-phenyl)-thiazol-4-ylmethyl]-2H-tetrazole], with 98 nM; and `O=C(O)Cc1nc(-c2cc(F)cc(C(F)(F)F)c2)co1` [Example 12, 2-(4-(3-Fluoro-5-(trifluoromethyl)phenyl)oxazol-2-yl)acetic acid], with 73 nM; and `O=C(O)Cc1csc(-c2cccc(C(F)(F)F)c2Cl)n1` [Example 27, 2-(2-(2-Chloro-3-(trifluoromethyl)phenyl)thiazol-4-yl)acetic acid], with 2380 nM.
